In patent US5536847A, “4-desoxy-4-epipodophyllotoxin derivative or pharmaceutically acceptable salt thereof” (Taiho Pharmaceutical Co. Ltd., priority 1991, dated 1996) one finds IC50, Life-prolonging effect and serious adverse reactions data, which are given here for 16 compounds.

Data set [1] concerns P388 mouse leukemia cell line. The data set is described as follows: Cytocidal effect on P388 mouse leukemia cells (crystal violet cytometry). It is filed as cell-based. As to conditions: read-out: ED50 (concentration causing a 50% decrease in cell count as compared with the control). How it is done:
A 96-well plate was inoculated with 1×10^3 cells/well of P388 mouse leukemia cell line and incubated for 24 hours. The test compound was dissolved in dimethylformamide and the solution was diluted with medium to various concentrations and added to respective wells. The plate was further incubated for 3 days, after which it was fixed with glutaraldehyde and stained with crystal violet for cytometry. The cytocidal effect of each compound was expressed as the concentration causing a 50% decrease in cell count (ED50) as compared with the control.

Data set [2] relates to L1210 mouse leukemia cell line. The data set is described as follows: Life-prolonging effect in CDF1 mice intraperitoneally transplanted with L1210 leukemia. As to conditions: 5 days, L1210, male CDF1 mice, vs vehicle group. Type of data set: in vivo. The method, then:
L1210 mouse leukemia cell line, 1×10^5 cells/mouse, was intraperitoneally transplanted into 7-weeks-old male CDF1 mice (6 per group). The test compound, in the varying amounts shown below in Table 4, was dissolved in physiological saline containing 3.5% of dimethyl sulfoxide and 6.5% of Tween 80 and the solution was intraperitoneally administered for 5 days following the transplantation of cells for a total of 5 times. The percent life-prolonging effect of the compound was determined by comparison with a group given physiological saline containing 3.5% of dimethyl sulfoxide and 6.5% of Tween 80 only.

For data set [3] the following is noted: background art statement; cited from earlier work.
The mark [4] stands for this setting: 72 h, P388 mouse leukemia cells, 1×10^3 cells/well, 3 days incubation with compound.

Read-outs that look alike come from different tables or passages of the source.

Take `COc1cc(C2c3cc4c(cc3C(CC=O)C3COC(=O)C23)OCO4)cc(OC)c1OC(=O)OCc1ccccc1` (stereo not drawn) [Compound 3, 4-desoxy-4'-demethyl-4'-O-benzyloxycarbonyl-4-formylmethyl-4-epipodophyllotoxin]: in data set [1] (Mus musculus, P388, 72 h), the IC50 stood at 450 nM. The same measure, in the same setting: the value for `COc1cc(C2c3cc4c(cc3C(CC=O)C3COC(=O)C23)OCO4)cc(OC)c1O` (stereo not drawn) [Compound 5, 4-desoxy-4'-demethyl-4-formylmethyl-4-epipodophyllotoxin] was 120 nM; that for `COc1cc(C2c3cc4c(cc3C(CCCN(C)C)C3COC(=O)C23)OCO4)cc(OC)c1O` (stereo not drawn) [Compound 28, 4-desoxy-4'-demethyl-4-(3-N,N-dimethylamino-1-propyl)-4-epipodophyllotoxin] was 12 nM. Same read-out and setting: the value for `COc1cc(C2c3cc4c(cc3C(CCN(C)N(C)C)C3COC(=O)C23)OCO4)cc(OC)c1O` (stereo not drawn) [Compound 33] was 20 nM; that for `COc1cc(C2c3cc4c(cc3C(CCN3CCN(C)CC3)C3COC(=O)C23)OCO4)cc(OC)c1O` (stereo not drawn) [Compound 34] was 3 nM. For the compound `COc1cc(C2c3cc4c(cc3C(CCN(C)CCN(C)C)C3COC(=O)C23)OCO4)cc(OC)c1O` (stereo not drawn) [Compound 35], in data set [1] (setting [4]), the IC50 worked out at 1 nM. The compound `COc1cc(C2c3cc4c(cc3C(CCN3CCOCC3)C3COC(=O)C23)OCO4)cc(OC)c1O` (stereo not drawn) [Compound 36] gave a Life-prolonging effect in data set [2] (10 mg/kg/day i.p.) of 81%. With `CCCCCCN(C)CCC1c2cc3c(cc2C(c2cc(OC)c(O)c(OC)c2)C2C(=O)OCC12)OCO3` (stereo not drawn) [Compound 38], the IC50 in data set [1] (Mus musculus, P388, 72 h) was 19 nM.

Turning to `COc1cc(C2c3cc4c(cc3C(CCN(C)CCN3CCCCC3)C3COC(=O)C23)OCO4)cc(OC)c1O` (stereo not drawn) [Compound 43], the IC50 in data set [1] (Mus musculus, P388, 72 h) turned out to be 4.1 nM. In data set [2] (5 mg/kg/day i.p.), this compound yielded a Life-prolonging effect of 257%.

For the compound `COc1cc(C2c3cc4c(cc3C(CCN3CCCCC3)C3COC(=O)C23)OCO4)cc(OC)c1O` (stereo not drawn) [Compound 44], in data set [1] (Mus musculus, P388, 72 h), the IC50 turned out to be 12 nM. Take `COc1cc(C2c3cc4c(cc3C(CCN3CCC(N5CCCCC5)CC3)C3COC(=O)C23)OCO4)cc(OC)c1O` (stereo not drawn) [Compound 45]: in data set [1] (Mus musculus, P388, 72 h), the IC50 amounted to 3.3 nM. The compound also yielded a Life-prolonging effect in data set [2] (2.5 mg/kg/day i.p.) of 231%. In the case of `CCN(CC)CCN(C)CCC1c2cc3c(cc2C(c2cc(OC)c(O)c(OC)c2)C2C(=O)OCC12)OCO3` (stereo not drawn) [Compound 47], the IC50 in data set [1] (setting [4]) amounted to 6.3 nM. `COc1cc(C2c3cc4c(cc3C(CCNCCN(C)C)C3COC(=O)C23)OCO4)cc(OC)c1O` (stereo not drawn) [Compound 52]: the IC50 in data set [1] (Mus musculus, P388, 72 h) worked out at 40 nM. Still for that read-out and setting: the value for `COc1cc(C2c3cc4c(cc3C(CCN(C)N3CCN(C)CC3)C3COC(=O)C23)OCO4)cc(OC)c1O` (stereo not drawn) [Compound 53] was 4.3 nM. In the case of `COc1cc([C@@H]2c3cc4c(cc3[C@@H](O[C@@H]3O[C@@H]5CO[C@@H](C)O[C@H]5[C@H](O)[C@H]3O)[C@H]3COC(=O)[C@H]23)OCO4)cc(OC)c1O` [etoposide], in data set [3], the serious adverse reactions entry was “may cause serious adverse reactions including leukopenia, thrombopenia, alopecia, nausea and vomiting”.

As to `COc1cc([C@@H]2c3cc4c(cc3[C@@H](O[C@@H]3O[C@@H]5CO[C@@H](c6cccs6)O[C@H]5[C@H](O)[C@H]3O)[C@H]3COC(=O)[C@H]23)OCO4)cc(OC)c1O` [teniposide], the serious adverse reactions entry in data set [3] was “may cause serious adverse reactions including leukopenia, thrombopenia, alopecia, nausea and vomiting”.
